Test: Human HepG2 cell viability assay in 384 well format
Format: toxicity, cell-based
Parameters: dose 125 nL, time 70.5 hour; concentration not given beside the values
Details: HepG2 cells, read-out: Inhibition

Structure (SMILES)	cytotoxicity at 70.5 h [%]
O=C(O)COc1ccc(CN2CCCC(Cc3cccnc3)C2)cc1 (stereo unspecified)	-9.55
CCC(C)(C)NC(=O)c1ccc(NC(=O)NCc2cc(C)no2)cc1	-0.597
O=C(c1cccnc1)N1CCN2C(=O)N(Cc3ccc(F)cc3)C[C@H]2C1	9.22
Cn1cccc1C(=O)N1C[C@H](OCC2CCOCC2)[C@H]2COC[C@H]21	-10.8
O=C1CC(NS(=O)(=O)c2ccc(Br)cc2)CN1 (stereo unspecified)	-4.25
COc1ccc(CCC2CCCCN2)cc1 (stereo unspecified)	24.2
CC(C)Cc1nc(CN2CCOC(Cn3cccn3)C2)no1 (stereo unspecified)	15.4
Cc1n[nH]c(SCC(=O)NC(c2ccncc2)C(C)C)n1 (stereo unspecified)	21
COCC(=O)N1CCC2(CC1)COC(COCc1ccccn1)C2 (stereo unspecified)	1.98
Cc1ccc(NC(=O)NC(C)c2nc[nH]n2)s1 (stereo unspecified)	-8.03
O=C(c1cc(C2CC2)nc2onc(-c3ccccc3)c12)N1CCOCC1	18.5
O=C(CC1CCC2(CC1)CCN(Cc1ccncc1)CC2)N1CCCC1	6.54
CC(CNS(=O)(=O)c1cccc(Cl)c1)N1CCN(C)CC1 (stereo unspecified)	-5.03
Cc1cc(C)n(NC(=O)c2ccc(Cl)cc2Cl)c(=O)c1	-16.4
CC(C)c1nn(C)c(N(C)C)c1CNC(C)c1ccccc1F (stereo unspecified)	-1.04
CCc1nc(CN2CCN(C(=O)COCc3ccccc3)CC2)no1	-7.36
CCCC(=O)N(Cc1ccncc1)C(C)CC (stereo unspecified)	-6.83
O=C(O)[C@@H]1CCN(C(=O)c2ccccn2)[C@@H]1c1ccc(F)cc1	-7.21
O=C(NC1CC(F)(F)C1)[C@]12COC[C@H]1CN(Cc1ccsc1)C2	-2.91

Structure (SMILES)	cytotoxicity at 70.5 h [%]
CCc1cc(-c2ccnc3c2ccn3C)nc(N2CCOCC2)n1	1.11
O=C(NCCc1ccccc1)N1CC[C@@H]2CNS(=O)(=O)[C@@H]2CC1	0.679
O=C1NC2(CCNCC2)CC1c1cccnc1 (stereo unspecified)	-7.17
O=C(CN1C(=O)CCNC1=O)N1CCC2(CCc3ccccc32)CC1	16.2
Cc1ccc(CN(C)CC2(O)CCCN(C)C2)o1 (stereo unspecified)	-2.94
CCn1cc(S(=O)(=O)N2CCN(C(=O)c3cc(Br)cs3)CC2)c(C)n1	21.7
Cc1nn(C)c(N2CCCN(C)CC2)c1CNC(=O)C(C)(C)C	-0.257
CN(CCCc1cnn(C)c1)C(=O)C1CCOC1 (stereo unspecified)	12.6
CN(CCc1ccccn1)C(=O)c1cn(CCN2CCNCC2)nn1	-10.7
Cc1occc(=O)c1OCc1noc(C(=O)NCC2CC2)n1	-16.6
Cc1cc(N(C)C)nc(N2CC(n3cccn3)C2)n1	5.13
CN(C)C(=O)[C@H]1C[C@@H]2CN(S(=O)(=O)Cc3ccccc3)C[C@H]1O2	-17.1
O=C(C1SCCc2sccc21)N1CC(O)C1 (stereo unspecified)	-5.69
Cc1ccccc1-n1cc(-c2ccnc(N[C@@H](CO)C(C)C)n2)cn1	-7.32
O=c1[nH]nc2c(S(=O)(=O)N3CCOCC3)cccn12	-9.51
O=C(COc1ccc2c(c1)CCC2)NCc1ccco1	23.9
CC(=O)N1CC=C(n2c(=O)[nH]c3ccccc32)CC1	-5.58
Cc1cc(C)c2cc(CNCC3CCCO3)c3nn(C)c(=O)n3c2c1 (stereo unspecified)	-6.37
Cn1cc(CN2C[C@@H]3COC[C@]3(CNC(=O)c3ccco3)C2)cn1	-10.1

Structure (SMILES)	cytotoxicity at 70.5 h [%]
N#Cc1ccccc1OCCN1CCC(C(=O)N2CCOCC2)CC1	-9.69
CCS(=O)(=O)CC(=O)Nc1ccc2oc(C3CC3)nc2c1	-0.903
CC(C)c1nsc(N2CCc3sccc3C2)n1	-11.5
COc1ccccc1C1CC(=O)Nc2c1c(=O)[nH]n2C1CCCC1 (stereo unspecified)	-11.5
CN(C)C(=O)N1CCC2(CC1)CN(Cc1ccccn1)C(=O)CO2	24.4
Cc1ccc(N2CC[C@@H]3[C@@H]2CCN3C(=O)Cc2ccccc2)nn1	5.36
COC(=O)c1cccc(S(=O)(=O)NC(=O)c2ccccc2F)c1	-5.66
CS(=O)(=O)CCSC1CCN(c2ccccc2F)C1=O (stereo unspecified)	-14.2
O=C(NCCNC(=O)C1CC1)c1sccc1Br	-6.03
Cc1ccn(-c2ccccc2NCc2scnc2C)n1	-1.69
COc1ccccc1C(O)CNC(=O)Nc1ccccn1 (stereo unspecified)	-5.18
COc1cccc([C@H]2CN(C(=O)c3cc(C)on3)C[C@@H]2N)c1	-10.9
CCCc1cc(C(=O)N2CCC3(CC2)CN(CCN(C)C)C(=O)O3)no1	-0.0862
Cc1nc(C)n(CC2CCCN(CCc3ccccn3)C2)n1 (stereo unspecified)	28.4
Cc1cc(C[C@@H]2CCC[C@H]2NCc2cccc(F)c2F)on1	-2.88
Cc1cs/c(=N\C(=O)Cn2nc(N3CCC(C)CC3)ccc2=O)[nH]1	-9.83
O=S(=O)(CCN1CCN(c2ccccc2O)CC1)c1ccc(Cl)cc1	-14.3
CCNc1cc2c(nn1)CCN(C(=O)c1c(C)noc1C)C2	-2.94

From ChEMBL document CHEMBL3507680, “University of Dundee, Gates Library screen for HepG2 cell viability”
